Read-outs that look alike come from different tables or passages of the source.
Legend:
[1] = Acute toxicity (LD50) after oral administration; assay type: in vivo; conditions: mouse, in vivo
Source text: (§1) Using ddY type male mice, acute toxicity (LD50) was examined after oral administration of the methyl, ethyl and butyl esters, respectively.
(§2) In a similar manner, LD50 was examined with regard to the C5 -C8 higher alkyl esters.

carrageenin edema [2] = test: Carrageenin edema-preventing effect, 5% ointment (Table 2); assay type: in vivo, rat (Wistar, female); conditions: for swelling percent (rate of volume increase), 1 hr / preventing rate (rate of edema prevention), 1 hr / swelling percent (rate of volume increase), 2 hr / preventing rate (rate of edema prevention), 2 hr / swelling percent (rate of volume increase), 3 hr / preventing rate (rate of edema prevention), 3 hr / swelling percent (rate of volume increase), 4 hr / preventing rate (rate of edema prevention), 4 hr / swelling percent (rate of volume increase), 5 hr / preventing rate (rate of edema prevention), 5 hr: 5% ointment, 50 mg/rat; for swelling percent (rate of volume increase), 1 hr / swelling percent (rate of volume increase), 2 hr / swelling percent (rate of volume increase), 3 hr / swelling percent (rate of volume increase), 4 hr / swelling percent (rate of volume increase), 5 hr: sole of rear paws; for swelling percent (rate of volume increase), 1 hr: control 37.1%; for preventing rate (rate of edema prevention), 1 hr / preventing rate (rate of edema prevention), 2 hr / preventing rate (rate of edema prevention), 3 hr / preventing rate (rate of edema prevention), 4 hr / preventing rate (rate of edema prevention), 5 hr: calculated in contrast to control; for swelling percent (rate of volume increase), 2 hr: control 74.4%; for swelling percent (rate of volume increase), 3 hr: control 83.9%; for swelling percent (rate of volume increase), 4 hr: control 83.3%; for swelling percent (rate of volume increase), 5 hr: control 80.8%
Experimental: Next, the carrageenin edema-preventing effect [E. Yamazaki, et al., Folia Pharmacologica Japonica, vol. 63, page 302 (1967)] was examined using an ointment containing a five-percent(5%) concentration of active ingredient. Using ten (10) Wistar female rats as one grouping, each test compound was applied at the rate of fifty (50) mg/rat onto the sole of the rear paws […] (30) minutes. After carrageenin was subcutaneously administered (1% carrageenin: 0.1 ml/rat) at the ointment-administered area, the volume was measured over a period of five (5) hours, during which a definite amount (50 mg/rat) of each test compound was administered every hour over a period of four (4) hours after the first measurement of the paw volume. The edema-preventing effect was thus determined in contrast to known compounds. In Table 2 following, the swelling percent (rate of volume increase) is given. The figures in parenthesis indicate the rate of edema prevention which was calculated in contrast to control. In control, carrageenin alone was administered.

carrageenin edema [3] = test: Carrageenin edema-preventing effect of ointment, comparison with Bufexamac (Table 3); assay type: in vivo, rat (Wistar, male); conditions: ointment 50 mg applied 3, 2 and 1 hours before carrageenin; for swelling (paw volume increase), 1 hr: control 48%; for swelling (paw volume increase), 2 hr: control 90%, ***p 0.02; for swelling (paw volume increase), 3 hr: control 95%, **p 0.05; for swelling (paw volume increase), 4 hr: control 91%; for swelling (paw volume increase), 5 hr: control 88%
Experimental: The butyl ester of the invention and Bufexamac were further compared in ointment form with respect to the edema-preventing effect thereof. Using eight (8) Wistar male rats, weighing 120 to 140 g., as one grouping, 50 mg. each of the test ointments was applied onto the sole of rear paws 3, 2 and 1 hours before an agent which induced inflammation was administered, after the paw volume at one side was measured. Carrageenin (1%: 0.1 ml.) was subcutaneously administered as the inflammation-inducingagent. Thereafter, the paw volume was again measured every hour over a period of five (5) hours. An edema-preventing rate was determined from the volume prior to administration of the inflammation-inducing agent.

ddY type male mice = test: Acute toxicity (LD50) after oral administration; assay type: in vivo; conditions: oral, mice; comparison with methyl or ethyl ester
Source text: as §1, §2

[4] = oral, ddY type male mice, 95% confidence limit in parentheses, read-out: LD50 (95% Confidence Limit)

Structure (SMILES) | swelling percent (rate of volume increase), 1 hr (carrageenin edema [2]) [%] | preventing rate (rate of edema prevention), 1 hr (carrageenin edema [2]) [%] | swelling percent (rate of volume increase), 2 hr (carrageenin edema [2]) [%] | preventing rate (rate of edema prevention), 2 hr (carrageenin edema [2]) [%] | swelling percent (rate of volume increase), 3 hr (carrageenin edema [2]) [%] | preventing rate (rate of edema prevention), 3 hr (carrageenin edema [2]) [%] | swelling percent (rate of volume increase), 4 hr (carrageenin edema [2]) [%] | preventing rate (rate of edema prevention), 4 hr (carrageenin edema [2]) [%] | swelling percent (rate of volume increase), 5 hr (carrageenin edema [2]) [%] | preventing rate (rate of edema prevention), 5 hr (carrageenin edema [2]) [%] | preventing rate (edema-preventing rate), 1 hr (carrageenin edema [3]) [%] | swelling (paw volume increase), 1 hr (carrageenin edema [3]) [%] | preventing rate (edema-preventing rate), 2 hr (carrageenin edema [3]) [%] | swelling (paw volume increase), 2 hr (carrageenin edema [3]) [%] | preventing rate (edema-preventing rate), 3 hr (carrageenin edema [3]) [%] | swelling (paw volume increase), 3 hr (carrageenin edema [3]) [%] | preventing rate (edema-preventing rate), 4 hr (carrageenin edema [3]) [%] | swelling (paw volume increase), 4 hr (carrageenin edema [3]) [%] | preventing rate (edema-preventing rate), 5 hr (carrageenin edema [3]) [%] | LD50 [1, 4] [mg/kg] | further results
CCCCCCCCOC(=O)c1ccccc1Nc1cccc(C(F)(F)F)c1 [Example 12] |  |  |  |  |  |  |  |  |  |  |  |  |  |  |  |  |  |  |  |  | LD50 ([1]; po, n-octyl ester, examined in a similar manner, read-out: LD50): ~5000 mg/kg
O=C(O)c1ccccc1Nc1cccc(C(F)(F)F)c1 [N-(3-trifluoromethylphenyl)anthranilic acid, reference compound] | 28.4 | 23.5 | 61.8 | 16.9 | 62.3 | 25.8 | 61.4 | 26.3 | 61.2 | 24.2 |  |  |  |  |  |  |  |  |  |  | 
CCCCOc1ccc(CC(=O)NO)cc1 [Bufexamac, reference compound] |  |  |  |  |  |  |  |  |  |  | 10.4 | 43 | 18.9 | 73 | 18.9 | 76 | 16.5 | 76 | 17.2 |  | swelling (paw volume increase), 5 hr (carrageenin edema [3]): 72%
CCOC(=O)c1ccccc1Nc1cccc(C(F)(F)F)c1 [II, Ethyl N-(3-trifluoromethylphenyl)anthranilate, reference compound] |  |  |  |  |  |  |  |  |  |  |  |  |  |  |  |  |  |  |  | 1820 | 
COC(=O)c1ccccc1Nc1cccc(C(F)(F)F)c1 [I, Methyl N-(3-trifluoromethylphenyl)anthranilate, reference compound] |  |  |  |  |  |  |  |  |  |  |  |  |  |  |  |  |  |  |  | 1620 | 
CCCCOC(=O)c1ccccc1Nc1cccc(C(F)(F)F)c1 [Compound of Invention, n-Butyl N-(3-trifluoromethylphenyl)anthranilate] | 23.5 | 36.7 | 47.3 | 36.4 | 54.8 | 34.7 | 55.5 | 33.4 | 50.0 | 38.1 | 10.4 | 43 | 30 | 63 | 28.4 | 68 | 24.2 | 69 | 22.7 | 3100 | edema-preventing effect as compared to the known compound (carrageenin edema [2]; versus N-(3-trifluoromethylphenyl)anthranilic acid, Table 2): improved edema-preventing effect; LD50 relative to that of the corresponding methyl or ethyl ester (ddY type male mice): 1/2; swelling (paw volume increase), 5 hr (carrageenin edema [3]): 68%

From patent US4198431A, “Alkyl N-(3-trifluoromethylphenyl)-anthranilate” (Hokuriku Pharmaceutical Co., Ltd., priority 1978, dated 1980)
